Values joined by “and” are separate entries in the source; they are usually repeats but may differ in a detail not shown here. Identical values can stand only once.
System: rat endometriosis model (grafted uterine strips)
Experiment: Endometriosis inhibiting activity: grafted uterine strip weight in ovariectomized, E2-treated rat endometriosis model
Assay type: in vivo
Conditions: for Total wet weight of the grafted uterine strips: left and right strips including abdominal wall, vehicle 0.4785 g, Sham 0.2596 g; for Suppression rate of grafted uterine strip weight (% ± SE): vs vehicle control, strip weight after subtracting Sham abdominal wall; for Suppression rate of the grafted uterine strip (average value): vehicle control group set as 0%, Table 2
Description: Buprenorphine hydrochloride (Lepetan injection 0.3 mg, Otsuka Pharmaceutical Co., Ltd., […] of which was diluted to 6.7 times with a physiological saline solution to provide 0.03 mg/mL solution when using) was administered subcutaneously into the back of the rats at a dose of 0.0024 mg/body (0.08 mL/body). The administration period was two days, which includes twice before and after the model preparation on the day when the model was prepared, and twice per day on the next day. It should be noted that the dosage amount of 0.0024 mg/body was the one that satisfied a recommended dose of 0.01 mg/kg in […] (0.0096 mg/kg) (estimated weight upon model preparation: 180 to 240 g).
Under 2% inhalation anesthesia, left and right flanks of the rats (operation site) were shaved, and the skin of one of the flasks was dissected. After peeling off the skin, the muscle layer was cut to open using a retractor so as to protrude it to the outside of the body with fat tissue around the ovary, then the fallopian tubes were ligated with a silk thread (sterile suture) followed by removing the ovary including the fat tissue. The peeled muscle layer and one part of the peritoneum were sutured with silk thread (sterile suture), then kanamycin solution, antibiotics, (manufactured by Meiji Seika Pharma Co., Ltd., “Meiji,” kanamycin sulfate injection of 1000 mg was diluted to 5 mg/mL with injection solvent) was applied to the operation site. The dissected skin was sutured with silk thread (sterile suture). Another ovary in the opposite side was removed in the same manner. At the time of the operation, sterile gloves were used, and surgical instruments used were sterilized by an autoclave and beads sterilizer. The surgical area was shaved with an electric clipper followed by disinfected with isodine alcohol and covered with a sterile bedsheet and a covering cloth.
Since the day of ovariectomy, after it was performed, E2 (β-Estradiol, 3 μg/mL animal) was subcutaneously administered to the back of the rats every day for 2 weeks. E2 (3 μg/mL animal) was administered in the same manner during 4 weeks after model preparation on the date that the model was prepared.
Thirteen days after ovariectomy (day 0 counting), the rats were divided into four groups (N=8) as the total weight on the grouping day was uniform in each group. Animals excluded from the groups were distributed to the Sham group.
On the next day of the grouping, models were prepared in accordance with Uchiide et al method, which was partially modified Vernon et al method. Rats were placed under inhalation anesthesia of 2% isoflurane, and made an incision in the abdomen along the midline, then the right uterine horn was excised and cut in half along the vertical line after removing the fat cells around the excised uterine horn. The uterine horn was made an incision along the horizontal axis to cut out two strips of approximately 5 mm×5 mm. The serosal surface of the abdominal cavity and the endometrial surface of the uterus strips were faced and sawed up the four corners thereof with a bioabsorbable suture (6-0, PDS-II, manufactured by Ethicon) to graft the uterine horns into the right and left abdominal walls one by one. In order to avoid adhesion, the abdominal cavity was washed with saline (manufactured by Otsuka Pharmaceutical Factory). Then, the abdominal wall fascia was sawed up with a bioabsorbable suture (4-0, monocryl, manufactured by Ethicon) and the skin was sawed up with a silk suture (4-0, blade silk, manufactured by Ethicon).
A required amount of SR16234 was weighed, pulverized with an agate mortar and pestle, and suspended in 0.5% carboxymethylcellulose sodium (CMC-Na) solution to prepare a 2 mg/mL solution, then used as undiluted solution. Preparation was performed using a volumetric flask. […]

CCN(CC)Cc1ccc(OCC[C@H]2CC[C@H]3[C@@H]4[C@H](C)Cc5cc(O)ccc5[C@H]4CC[C@]23C)c(OC)c1 [SR16234, (7α)-21-[4-[(diethylamino)methyl]-2-methoxyphenoxy]-7-methyl-19-norpregna-1,3,5(10)-triene-3-ol]
Total wet weight of the grafted uterine strips (0.1 mg/kg p.o. 28 days): 0.3988 g | Suppression rate of grafted uterine strip weight (% ± SE) (0.1 mg/kg p.o. once a day for 28 days): 36.4 ± 25.2% | Suppression rate of the grafted uterine strip (average value) (0.1 mg/kg p.o.): 26% | Total wet weight of the grafted uterine strips (0.3 mg/kg p.o. 28 days): 0.3401 g | Suppression rate of grafted uterine strip weight (% ± SE) (0.3 mg/kg p.o. once a day for 28 days): 63.2 ± 17.7% | Suppression rate of the grafted uterine strip (average value) (0.3 mg/kg p.o.): 45% | Suppression rate of the grafted uterine strip weight compared to the vehicle control group (in words) (1.0 mg/kg administered group): particularly significant suppression rate | Total wet weight of the grafted uterine strips compared to the vehicle control group (in words) (1.0 mg/kg administered group): particularly significant suppression ratio | Total wet weight of the grafted uterine strips (1.0 mg/kg p.o. 28 days): 0.2647 g | Suppression rate of grafted uterine strip weight (% ± SE) (1.0 mg/kg p.o. once a day for 28 days): 97.7 ± 21.2% | Suppression rate of the grafted uterine strip (average value) (1.0 mg/kg p.o.): 68% and 69.0%

Source: patent US10369159B2, “Estrogen receptor β partial agonist having estrogen receptor α inhibitory effect, and gynecological disease therapeutic agent using same” (NOBELPHARMA CO., LTD., priority 2015, dated 2019)
